In assay [1] the test system is plaque-forming splenic cells (PFC). The experiment in a line: Primary antibody response against thymus-dependent antigen (PFC, Jerne plaque assay). The assay is classed as in vivo, Mice B6 D2 F1. Conditions: 25 gamma i.p. 6 days before immunisation. An excerpt: (§1) The following experimental tests were used: • 1. Primary antibody response against thymus-dependent antigen, evaluated as the number of plaque-forming splenic cells (PFC) Mice B6 D2 F1, antigen SRBC (red sheep corpuscles) Jerne N.K and Nordin A.A., Plaque formation in ager by single antibody-producing cells Science, 140, 405, 1963. Table A • 2. Delayed hypersensitivity against cell antigen (DTH) Mice B6 D2 F1, antigen SRBC (red sheep corpuscles) Lagrange P.H., Mackaness G.B and Miller T.E., potentiation of T-cell-mediated immunity by selective suppression of antibody formation with cyclophosphamide. J. Exp. Med., 139, 1529, 1974. Table B • 3. Macrophage cytotoxic activity against target tumour induced by Corynebacterium Parvum Mice C57 BL/6; tumour L1210 pretagged with ⁵¹Cr; attack:target ratio 80:1; tumouricide activity evaluated as release of tagging compound and expressed as % of specific cytotoxicity. Herscowitr H.B. et al., Eds., Manual of macrophage methodology, M. Dekker 1981. Table C • 4. Splenic NK (natural cytotoxic cell) activity potentiated with polynucleotide (Poly I:C) Mice C57 BL/6; tumour YAC-1; evaluation as in test 3. Herbeman R.B. Ed., "Natural cell-mediated immunity against tumors". Academic Press, 1980. Table D
The treatment was carried out during the inductive stage of the response.

Assay [2] concerns antigen SRBC (red sheep corpuscles). The experiment in a line: Delayed hypersensitivity against cell antigen (DTH). Type of assay: in vivo, Mice B6 D2 F1. Conditions: 1 gamma i.p. on day of immunisation.
Excerpt: as §1, with “Table D […]” for “Table D”

For the substance Tuftsin, the “% increase in PFC/spleen vs. control” value in assay [1] is given as 65%.
As to Muramyl dipeptide, the “DTH response (Table B, continuation; column head not given)” value in assay [2] is on record as 50.

The record behind these values is patent EP0352609A1 (BIORESEARCH S.p.A., priority 1988, dated 1990).
